Reference: paper PMC8708274, “Unveiling the Membrane and Cell Wall Action of Antimicrobial Cyclic Lipopeptides: Modulation of the Spectrum of Activity” (Pharmaceutics, 2021)
Where two headings read alike, the source gives them in different places. Positions of bridges follow the written chain, without caps; N, C: chain ends. Non-standard residues stand in square brackets, D forms with d. Residues, ends and D or L forms follow the SMILES beside them. *: point of attachment. Lauroyl = CCCCCCCCCCCC(=O)*; Decanoyl = CCCCCCCCCC(=O)*; Nonanoyl = CCCCCCCCC(=O)*; Nle = CCCC[C@H](N)C(=O)O; Octanoyl = CCCCCCCC(=O)*; Dab = NCC[C@H](N)C(=O)O; Hexanoyl = CCCCCC(=O)*

How the values were obtained:
[1] = Kinetics of insertion into monolayers; assay type: binding; details: 25 min after injection, 10 mM Tris pH 7.4, 25 °C, average of three independent experiments (error < 10%); for Increase in surface pressure (Δπ), POPE/POPG: POPE/POPG 6:4, initial pressure 32 mN·m^−1, peptide 0.48 μM; for Increase in surface pressure (Δπ), POPC / Increase in surface pressure (Δπ), POPG: initial pressure 32 mN·m^−1, peptide 0.48 μM
Description: (§1) Monolayer studies were performed at room temperature (25 °C) on a monolayer system (NIMA Technology, Coventry, UK) by using a cylindrical PTFE (Teflon®, Wilmington, DE, USA) trough (5 cm diameter) containing a continuously stirred aqueous phase (12 mL, 10 mM Tris pH 7.4) and a Wilhelmy platinum plate connected to an electrobalance. The system was enclosed in a Plexiglass box to reduce surface contamination, and before each run, the plate and the trough were cleaned with hot water at >70 °C to avoid carryover of lipid or peptide. Monolayers of POPG, POPE/POPG (6:4), POPC, or LPS were formed by applying small drops of the lipid stock solutions in CHCl3 on the aqueous subphase with a microsyringe (Hamilton Co., Reno, NV, USA) to achieve a surface pressure of 32 mN·m^−1. After 10 min, allowing for solvent evaporation, a known aliquot of peptide was added without disturbance of the monolayer via an inlet port, and the surface pressure was continuously monitored.

[2] = Kinetics of insertion into monolayers; assay type: binding, Salmonella enterica serotype Minnesota Re 595; details: initial pressure 32 mN·m^−1, peptide 0.48 μM, 25 min after injection, 10 mM Tris pH 7.4, 25 °C, average of three independent experiments (error < 10%)
Description: as §1

[3] = test system: Escherichia coli ATTC 25922; assay type: cell-based
Description: (§2) The minimal peptide concentration required to prevent the growth of a given test organism was determined after incubation overnight at 37 °C and was defined as the MIC. Activity was determined in representative bacteria, Escherichia coli ATTC 25922, Pseudomonas aeruginosa ATTC 27853, and Staphylococcus aureus ATTC 25923, using the broth microdilution method. Serial-two-fold dilutions of peptide (from 0.06 to 32 μg/mL) were performed in Mueller–Hinton broth (MHB) culture medium in sterile 96-well polypropylene microtiter plates inoculated with a final concentration of 5 × 10^5 CFU·mL^−1 of bacteria in each well. Bacteria were in the pre-exponential phase. Each determination was done by triplicate. In order to be considered acceptable, the three MIC results have to differ in only in one well, and the result was always given as the higher of the three. Drug-free and microorganism-free wells were used as positive and negative controls, respectively. Bacterial growth was visually determined on the basis of turbidity.

[4] = test system: Pseudomonas aeruginosa ATTC 27853; assay type: cell-based
Description: as §2

[5] = test system: Staphylococcus aureus ATTC 25923; assay type: cell-based
Description: as §2

[6] = broth microdilution, MHB, 5 × 10^5 CFU/mL, overnight 37 °C, triplicate, higher of the three

Structure (SMILES)	Increase in surface pressure (Δπ), POPE/POPG [1] [mN·m^−1]	Increase in surface pressure (Δπ), POPC [1] [mN·m^−1]	Increase in surface pressure (Δπ), POPG [1] [mN·m^−1]	Increase in surface pressure (Δπ), LPS [2] [mN·m^−1]	MIC EC ([3]; ATTC 25922) [µM]	MIC EC [3, 6] [µg/mL]	MIC PA ([4]; ATTC 27853) [µM]	MIC PA [4, 6] [µg/mL]	MIC SA ([5]; ATTC 25923) [µM]	MIC SA [5, 6] [µg/mL]
CCCCCC(=O)N[C@@H](CCN)C(=O)N[C@H](C(=O)N[C@@H](CCN)C(=O)N[C@H]1CSSC[C@H](C(N)=O)NC(=O)[C@H](CCN)NC(=O)[C@H](CCN)NC(=O)[C@H](CC(C)C)NC(=O)[C@@H](Cc2ccccc2)NC(=O)[C@H](CCN)NC1=O)[C@@H](C)O [spB-1] (Hexanoyl-[Dab]T[Dab]C[Dab][dF]L[Dab][Dab][dC]-NH2; disulfide 4-10)	4.6	0.9	5.7	12.1	> 27	> 32	> 27	> 32	> 27	> 32
CCCCCCCC(=O)N[C@@H](CCN)C(=O)N[C@H](C(=O)N[C@@H](CCN)C(=O)N[C@H]1CSSC[C@H](C(N)=O)NC(=O)[C@H](CCN)NC(=O)[C@H](CCN)NC(=O)[C@H](CC(C)C)NC(=O)[C@@H](Cc2ccccc2)NC(=O)[C@H](CCN)NC1=O)[C@@H](C)O [spB-2] (Octanoyl-[Dab]T[Dab]C[Dab][dF]L[Dab][Dab][dC]-NH2; disulfide 4-10)	5.5	1.8	7.0	12.6	13	16	6.6	8	26	> 32
CCCCCCCCCCCC(=O)N[C@@H](CCN)C(=O)N[C@H](C(=O)N[C@@H](CCN)C(=O)N[C@H]1CSSC[C@H](C(N)=O)NC(=O)[C@H](CCN)NC(=O)[C@H](CCN)NC(=O)[C@H](CC(C)C)NC(=O)[C@@H](Cc2ccccc2)NC(=O)[C@H](CCN)NC1=O)[C@@H](C)O [spB-4] (Lauroyl-[Dab]T[Dab]C[Dab][dF]L[Dab][Dab][dC]-NH2; disulfide 4-10)	5.0	2.5	6.7	12.2	13	16	6.3	8	6.3	8
CCCCCCCC(=O)N[C@@H](CCN)C(=O)N[C@H](C(=O)N[C@@H](CCN)C(=O)N[C@H]1CSSC[C@H](C(N)=O)NC(=O)[C@H](CCN)NC(=O)[C@H](CCN)NC(=O)[C@H](CCCC)NC(=O)[C@@H](Cc2ccccc2)NC(=O)[C@H](CCN)NC1=O)[C@@H](C)O [spB-5] (Octanoyl-[Dab]T[Dab]C[Dab][dF][Nle][Dab][Dab][dC]-NH2; disulfide 4-10)	6.5	0.8	7.3	10.6	1.7	2	3.3	4	> 26	> 32
CCCCCCCCC(=O)N[C@@H](CCN)C(=O)N[C@H](C(=O)N[C@@H](CCN)C(=O)N[C@H]1CSSC[C@H](C(N)=O)NC(=O)[C@H](CCN)NC(=O)[C@H](CCN)NC(=O)[C@H](CCCC)NC(=O)[C@@H](Cc2ccccc2)NC(=O)[C@H](CCN)NC1=O)[C@@H](C)O [spB-6] (Nonanoyl-[Dab]T[Dab]C[Dab][dF][Nle][Dab][Dab][dC]-NH2; disulfide 4-10)	5.0	0.4	6.0	10.8	1.6	2	0.82	1	13	16
CCCCCCCCCCCC(=O)N[C@@H](CCN)C(=O)N[C@H](C(=O)N[C@@H](CCN)C(=O)N[C@H]1CSSC[C@H](C(N)=O)NC(=O)[C@H](CCN)NC(=O)[C@H](CCCNC(=N)N)NC(=O)[C@H](CCCC)NC(=O)[C@@H](Cc2ccccc2)NC(=O)[C@H](CCN)NC1=O)[C@@H](C)O [spB-9] (Lauroyl-[Dab]T[Dab]C[Dab][dF][Nle]R[Dab][dC]-NH2; disulfide 4-10)	6.0	2.2	3.4	11.1	3.0	4	3.0	4	1.5	2
CCCCCC(=O)N[C@@H](CCN)C(=O)N[C@H](C(=O)N[C@@H](CCN)C(=O)N[C@H]1CSSC[C@H](C(N)=O)NC(=O)[C@H](CCN)NC(=O)[C@H](CCN)NC(=O)[C@H](CC(C)C)NC(=O)[C@@H](CC(C)C)NC(=O)[C@H](CCN)NC1=O)[C@@H](C)O [spE-1] (Hexanoyl-[Dab]T[Dab]C[Dab][dL]L[Dab][Dab][dC]-NH2; disulfide 4-10)	4.1	0.3	2.8	10.6	> 28	> 32	> 28	> 32	> 28	> 32
CCCCCCCC(=O)N[C@@H](CCN)C(=O)N[C@H](C(=O)N[C@@H](CCN)C(=O)N[C@H]1CSSC[C@H](C(N)=O)NC(=O)[C@H](CCN)NC(=O)[C@H](CCN)NC(=O)[C@H](CC(C)C)NC(=O)[C@@H](CC(C)C)NC(=O)[C@H](CCN)NC1=O)[C@@H](C)O [spE-2] (Octanoyl-[Dab]T[Dab]C[Dab][dL]L[Dab][Dab][dC]-NH2; disulfide 4-10)	6.4	0.6	4.3	9.5	14	16	3.4	4	> 27	> 32
CCCCCCCCCC(=O)N[C@@H](CCN)C(=O)N[C@H](C(=O)N[C@@H](CCN)C(=O)N[C@H]1CSSC[C@H](C(N)=O)NC(=O)[C@H](CCN)NC(=O)[C@H](CCN)NC(=O)[C@H](CC(C)C)NC(=O)[C@@H](CC(C)C)NC(=O)[C@H](CCN)NC1=O)[C@@H](C)O [spE-3] (Decanoyl-[Dab]T[Dab]C[Dab][dL]L[Dab][Dab][dC]-NH2; disulfide 4-10)	7.9	1.3	5.7	10.0	6.7	8	1.7	2	6.7	8
CCCCCCCCCCCC(=O)N[C@@H](CCN)C(=O)N[C@H](C(=O)N[C@@H](CCN)C(=O)N[C@H]1CSSC[C@H](C(N)=O)NC(=O)[C@H](CCN)NC(=O)[C@H](CCN)NC(=O)[C@H](CC(C)C)NC(=O)[C@@H](CC(C)C)NC(=O)[C@H](CCN)NC1=O)[C@@H](C)O [spE-4] (Lauroyl-[Dab]T[Dab]C[Dab][dL]L[Dab][Dab][dC]-NH2; disulfide 4-10)	9.1	2.1	5.8	11.4	6.5	8	0.81	1	6.5	8
